In patent publication US20150239833A1, “COMPOSITION, SYNTHESIS, AND USE OF NEW ARYLSULFONYL ISONITRILES” (DUQUESNE UNIVERSITY OF THE HOLY GHOST, priority 2014, published 2015):

`[C-]#[N+]CS(=O)(=O)c1ccccc1` [compound 3a, ((Isocyanomethyl)sulfonyl)benzene] showed a melting point of 89 to 90 °C.
`[C-]#[N+]CS(=O)(=O)c1ccc(C)cc1` [compound 3b, 1-((isocyanomethyl)sulfonyl)-4-methylbenzene] showed a melting point of 112 to 113 °C.
Work on `[C-]#[N+]CS(=O)(=O)c1ccc2ccccc2c1` [compound 3d, 2-((isocyanomethyl)sulfonyl)naphthalene] yielded a melting point of 104 to 105 °C.
With `[C-]#[N+]CS(=O)(=O)c1ccc(F)cc1` [compound 3e, 1-fluoro-4-((isocyanomethyl)sulfonyl)benzene] the melting point was 63 °C.
In the case of `[C-]#[N+]CS(=O)(=O)c1ccc(Cl)cc1` [compound 3f, 1-Chloro-4-((isocyanomethyl)sulfonyl)benzene], the melting point was 109 to 110 °C (dec.).
With `[C-]#[N+]CS(=O)(=O)c1cc(Cl)cc(Cl)c1` [compound 3h, 1,3-dichloro-5-((isocyanomethyl)sulfonyl)benzene] the melting point was 82 to 83 °C.
For `[C-]#[N+]CS(=O)(=O)c1ccc(OC)c(OC)c1` [compound 3k, 4-((isocyanomethyl)sulfonyl)-1,2-dimethoxybenzene], the melting point was 101 to 102 °C.
In the case of `[C-]#[N+]CS(=O)(=O)c1c(OC)cccc1OC` [compound 3p, 2-((Isocyanomethyl)sulfonyl)-1,3-dimethoxybenzene], the melting point was 90 to 91 °C.
